Patent US3966824A, “P,P'-Disubstituted α-trichloromethylbenzylphenyl ethers” (University of Illinois Foundation, priority 1974, dated 1976)
“Also recorded” adds a separate entry of the source.

How the values were obtained:
[1] = test system: multifunction oxidase (MFO) enzymes; conditions: cited from earlier work
[2] = test system: insects; conditions: relative to DDT where stated; cited from earlier work
[3] = test system: Musca domestica Rsp; experiment: Topical toxicity to adult female Rsp (resistant) houseflies, alone and with piperonyl butoxide; format: in vivo, Musca domestica L.; conditions: for SR (synergistic ratio), Musca domestica Rsp: LD50 alone / LD50 synergized with piperonyl butoxide; for LD50: Musca domestica, alone; for LD50 / Topical LD50, Musca domestica Rsp, pb: Rsp strain, topical; for Topical LD50, Musca domestica Rsp, pb: synergized with piperonyl butoxide (pb)
Experimental: (§1) The compounds of the present invention were tested for insecticidal activity by standard methods, and compared with the insecticidal activities of DDT and symmetrical analogs of DDT, such as methoxychlor. Toxicological methods for the determination of the topical LD50 values to adult female SNAIDM and PSR houseflies, Musca domestica L. and to Phormia regina, and LC50 values to clex pipiens quinquefas ciatus Say, and Anopheles albimanus Weid mosquitoes were described by Metcalf et al., 44 Bull. World Health Org. 363 (1971). The methods for evaluation of metabolism by mouse liver homogenate and by female RSP housefly and salt-marsh caterpillar larvae Estigmene acrea Drury, were described by Metcalf et al., 5 J. Environ. Sci. Tech. 709 (1971).
(§2) The synergistic ratios or SR values (LD50 alone/ LD50 synergized with piperonyl butoxide) shown in Table II indicate the role of the multifunction oxidase (MFO) in detoxifying the individual compounds. Since piperonyl butoxide serves to block the action of MFO, the synergized LD50 values express the intrinsic toxicity of the compounds. With the detoxifying action of MFO enzymes blocked, the intrinsic toxicity of the compounds can thus be measured.

[4] = test system: Phormia regina; experiment: Topical toxicity to Phormia regina, alone and with piperonyl butoxide; format: in vivo; conditions: for SR (synergistic ratio), Phormia regina: LD50 alone / LD50 synergized with piperonyl butoxide; for LD50: Phormia regina, alone; for LD50 / Topical LD50, Phormia regina, pb: topical; for toxicity to Phormia: in vivo; for Topical LD50, Phormia regina, pb: synergized with piperonyl butoxide (pb)
Experimental: as §1, §2

[5] = test system: Anopheles albimanus larvae; experiment: Toxicity to Anopheles albimanus mosquito larvae; format: in vivo
Experimental: as §1

[6] = test system: Culex fatigans larvae; experiment: Toxicity to Culex mosquito larvae; format: in vivo
Experimental: as §1

[7] = test system: Musca domestica SNAIDM; experiment: Topical toxicity to adult female SNAIDM (susceptible) houseflies, alone and with piperonyl butoxide; format: in vivo, Musca domestica L.; conditions: for SR (synergistic ratio), Musca domestica SNAIDM: LD50 alone / LD50 synergized with piperonyl butoxide; for LD50: Musca domestica, alone; for LD50 / Topical LD50, Musca domestica SNAIDM, pb: SNAIDM strain, topical; for Topical LD50, Musca domestica SNAIDM, pb: synergized with piperonyl butoxide (pb)
Experimental: as §1, §2

[8] = test system: insects; experiment: General insecticidal activity (house flies, blow fly, mosquitoes and other insects); format: in vivo; conditions: comparison among the 9 ethers of Table II
Excerpt: (§3) It has been found from metabolic studies on insects, and mice, using a model ecosystem and the methods described in Kapoor, et al., 18(6) J.Agr., Food Chem. 1145 (1970), Metcalf, et al., J. Environ. Sci. Technol. 709 (1971) and also in the copending application of Metcalf et al., "Insecticidal Biodegradable Analogues of DDT", Ser. No. 147,241, filed May 26, 1971, and having a common assignee with the present application, that certain p,p'-disubstituted α-trichloromethylbenzylphenyl ethers with various substituent groups are readily attacked by multifunction oxidase (MFO) enzymes, and thus are substantially biodegradable.
as §1

[9] = test system: mosquito larvae; experiment: Toxicity to mosquito larvae (general statement); conditions: in vivo
Experimental: as §1

[10] = test system: multifunction oxidase (MFO) enzymes; experiment: Biodegradability / metabolism by multifunction oxidase (MFO) enzymes (insects, mice, model ecosystem); format: in vitro ADME; conditions: inferred from SR values
Excerpt: as §3
as §1, with “709 (1971). […]” for “709 (1971).”

[11] = cited from earlier work
[12] = test system: animals; conditions: prior art; cited from earlier work

Structure (SMILES) | SR (synergistic ratio), Musca domestica Rsp [3] | LD50 [3] [mg/kg] | Topical LD50, Musca domestica Rsp, pb [3] [μg per g] | SR (synergistic ratio), Phormia regina [4] | LD50 [4] [mg/kg] | Topical LD50, Phormia regina, pb [4] [μg per g] | LC50 Anopheles albimanus larvae [5] [ppm] | LC50 Culex fatigans larvae [6] [ppm] | SR (synergistic ratio), Musca domestica SNAIDM [7] | LD50 [7] [mg/kg] | Topical LD50, Musca domestica SNAIDM, pb [7] [μg per g] | other results
CSc1ccc(C(c2ccc(SC)cc2)C(Cl)(Cl)Cl)cc1 [methiochlor, 1,1,1-trichloro-2,2-bis-(p-methiophenyl) ethane] | – | – | – | – | – | – | – | – | – | – | – | biodegradability / attack by MFO enzymes of prior art compounds [1]: readily attacked by MFO enzymes; insecticidal activity of prior art compounds [2]: considerably less insecticidal activity than DDT towards other species of insects
CCOc1ccc(OC(c2ccc(OCC)cc2)C(Cl)(Cl)Cl)cc1 (stereo not shown) [IV] | 1.7 | 42 | 24.5 | 1.0 | 16.5 | 16.5 | 0.07 | 0.11 | 2.1 | 27 | 13.0 | toxicity to Phormia [4]: quite toxic to Phormia; intrinsic toxicity / insecticidal effectiveness [8]: highest intrinsic toxicity
CCOc1ccc(C(Oc2ccc(C)cc2)C(Cl)(Cl)Cl)cc1 (stereo not shown) [VIII] | 2.9 | 65 | 22.0 | 1.5 | 46.2 | 30.0 | 0.066 | 0.18 | 3.5 | 72.5 | 20.5 | –
Clc1ccc(C(c2ccc(Cl)cc2)C(Cl)Cl)cc1 [DDD, 1,1-dichloro-2,2-bis(p-chlorophenyl)ethane] | – | – | – | – | – | – | – | – | – | – | – | biodegradability / attack by MFO enzymes of prior art compounds [1]: do not function on DDT and its metabolic derivatives DDE and DDD (or TDE)
COc1ccc(C(Oc2ccc(Cl)cc2)C(Cl)(Cl)Cl)cc1 (stereo not shown) [V] | 1.6 | 130 | 82.5 | 1.8 | 205 | 115 | 0.038 | 0.14 | 6.3 | 108 | 17.0 | –
CCOc1ccc(C(Oc2ccc(OC)cc2)C(Cl)(Cl)Cl)cc1 (stereo not shown) [VII] | 6.4 | 90 | 14.0 | 1.9 | 30 | 16.0 | 0.034 | 0.14 | 9.0 | 45 | 5.0 | toxicity to Phormia [4]: quite toxic to Phormia; intrinsic toxicity / insecticidal effectiveness [8]: highest intrinsic toxicity
Clc1ccc(OC(c2ccc(Cl)cc2)C(Cl)(Cl)Cl)cc1 (stereo not drawn) [I, α-trichloromethyl-p-chlorobenzyl p-chlorophenyl ether] | > 3.6 | > 500 | 180 | – | > 250 | > 250 | 0.014 | 0.035 | 1.0 | 90 | 90 | toxicity to mosquito larvae [9]: the most toxic
Cc1ccc(C(c2ccc(C)cc2)C(Cl)(Cl)Cl)cc1 [methylchlor, 1,1,1-trichloro-2,2-bis(p-methylphenyl)ethane] | – | – | – | – | – | – | – | – | – | – | – | insecticidal activity of prior art compounds [2]: considerably less insecticidal activity than DDT towards other species of insects
COc1ccc(OC(c2ccc(OC)cc2)C(Cl)(Cl)Cl)cc1 (stereo not drawn) [II, α-trichloromethyl-p-methoxybenzyl p-methoxyphenyl ether] | > 8.7 | > 500 | 57.5 | 1.5 | 125 | 82.5 | 0.10 | 0.51 | 22 | 300 | 14.0 | detoxication in susceptible and resistant houseflies [10]: rapid detoxication
Clc1ccc(C(c2ccc(Cl)cc2)C(Cl)(Cl)Cl)cc1 [DDT, 1,1, 1 trichloro-2,2-bis(p-chlorophenyl)ethane] | – | – | – | – | – | – | – | – | – | – | – | lipid solubility [11]: high lipid solubility; water solubility [11]: very low water solubility; accumulation in animal tissues [12]: accumulation in the fatty or lipid tissues of animals
ClC(Cl)=C(c1ccc(Cl)cc1)c1ccc(Cl)cc1 [DDE, 1,1-dichloro-2,2-bis(p-chlorophenyl) ethylene] | – | – | – | – | – | – | – | – | – | – | – | biodegradability / attack by MFO enzymes of prior art compounds [1]: do not function on DDT and its metabolic derivatives DDE and DDD (or TDE)
CCOc1ccc(C(Oc2ccc(Cl)cc2)C(Cl)(Cl)Cl)cc1 (stereo not drawn) [VI, α-trichloromethyl-p-ethoxybenzyl p-chlorophenyl ether] | 2.5 | 31 | 12.5 | 1.0 | 31.2 | 31.2 | 0.044 | 0.067 | 1.9 | 18.5 | 9.5 | toxicity to mosquito larvae [9]: only slightly less toxic; toxicity to Phormia [4]: only slightly less toxic to Phormia than the p,p'-diethoxy compound IV; housefly LD50 ([7]; comparison among compounds of Table II): lowest LD50 values to the housefly; intrinsic toxicity / insecticidal effectiveness [8]: highest intrinsic toxicity; also recorded: most effective insecticide generally
COc1ccc(C(Oc2ccc(C)cc2)C(Cl)(Cl)Cl)cc1 (stereo not shown) [IX] | > 4 | > 500 | 135 | – | > 250 | > 250 | > 1.0 | 0.65 | > 13 | > 500 | 39.0 | –
COc1ccc(C(c2ccc(OC)cc2)C(Cl)(Cl)Cl)cc1 [methoxychlor, 1,1,1-trichloro-,2,2-bis(p-methoxyphenyl)ethane] | – | – | – | – | – | – | – | – | – | – | – | biodegradability / attack by MFO enzymes of prior art compounds [1]: readily attacked by MFO enzymes; insecticidal activity of prior art compounds [2]: considerably less insecticidal activity than DDT towards other species of insects; accumulation in animal tissues [12]: not generally accumulated in animal tissues
Cc1ccc(OC(c2ccc(C)cc2)C(Cl)(Cl)Cl)cc1 (stereo not shown) [III] | > 3 | > 500 | 145 | 1.35 | 135 | 100 | 0.18 | 0.12 | 2.9 | 265 | 90 | –
